Data taken from patent US20070043034A1, “Chlorine Ion Uptake Modulators and Uses Thereof” (priority 2005, published 2007).

Molecular target: T1, NKCCl (Rattus norvegicus, UniProt E9PTX9)
T1 construct: gramicidin perforated patch clamped CA1 pyramidal neuron in an acute hippocampal slice from a P5 rat; from tissue; host or cells: acute hippocampal slices of P3-P6 male Sprague-Dawley rats; CA1 pyramidal neurons
T1 sequence (E9PTX9 1-1203): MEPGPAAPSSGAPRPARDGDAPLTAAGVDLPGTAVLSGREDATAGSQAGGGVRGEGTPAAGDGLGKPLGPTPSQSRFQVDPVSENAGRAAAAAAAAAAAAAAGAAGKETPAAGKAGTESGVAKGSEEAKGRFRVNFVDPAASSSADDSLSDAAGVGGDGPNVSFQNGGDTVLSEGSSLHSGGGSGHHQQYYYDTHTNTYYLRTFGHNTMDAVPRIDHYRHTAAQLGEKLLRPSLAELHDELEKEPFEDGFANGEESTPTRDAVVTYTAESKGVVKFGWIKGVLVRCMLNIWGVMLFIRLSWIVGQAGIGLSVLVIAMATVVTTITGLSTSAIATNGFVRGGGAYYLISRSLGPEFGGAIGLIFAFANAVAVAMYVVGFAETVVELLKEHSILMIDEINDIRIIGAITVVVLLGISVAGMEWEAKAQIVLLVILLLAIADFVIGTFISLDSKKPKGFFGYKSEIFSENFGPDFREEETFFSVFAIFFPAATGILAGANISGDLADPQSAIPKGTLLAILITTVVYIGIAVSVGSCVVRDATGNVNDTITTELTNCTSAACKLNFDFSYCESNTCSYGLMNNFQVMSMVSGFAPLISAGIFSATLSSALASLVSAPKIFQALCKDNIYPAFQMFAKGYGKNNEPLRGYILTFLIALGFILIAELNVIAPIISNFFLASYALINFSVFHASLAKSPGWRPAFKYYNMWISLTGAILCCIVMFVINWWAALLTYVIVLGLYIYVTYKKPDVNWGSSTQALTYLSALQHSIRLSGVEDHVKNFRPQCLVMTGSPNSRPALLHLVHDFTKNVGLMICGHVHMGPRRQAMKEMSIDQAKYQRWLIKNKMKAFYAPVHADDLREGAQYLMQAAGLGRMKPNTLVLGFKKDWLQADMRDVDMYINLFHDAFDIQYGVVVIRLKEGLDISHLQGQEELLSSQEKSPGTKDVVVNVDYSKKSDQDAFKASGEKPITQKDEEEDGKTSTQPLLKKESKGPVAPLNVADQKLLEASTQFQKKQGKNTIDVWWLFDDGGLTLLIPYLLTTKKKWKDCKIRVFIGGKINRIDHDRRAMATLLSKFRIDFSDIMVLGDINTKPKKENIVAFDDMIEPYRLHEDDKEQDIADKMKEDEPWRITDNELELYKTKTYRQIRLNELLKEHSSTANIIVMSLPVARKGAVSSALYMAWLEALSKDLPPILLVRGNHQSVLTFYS
Assay: Reversal potential of stimulus-evoked GABAA-PSCs in immature CA3 pyramidal cells
Assay type: cell-based
Experimental: Cell cultures, such as pyramidal cells, can be used to examine the effects of a pharmaceutical composition of the present invention on GABAA receptor activation. In one exemplary method, selective inhibition of NKCCl by a pharmaceutical composition of the present invention, bumetanide, was tested to examine the relationship between chloride accumulation in neurons, GABAA receptor activation and NKCC1. Specifically, the reversal potential of electrical stimulus evoked GABAA-receptor mediated post-synaptic currents (GABAA-PSCS) in immature P4-P6 CA3 pyramidal cells of the hippocampus was examined in the presence or absence of bumetanide. Electrical stimulation of the stratum radiatum (7 V, 30 us duration) evoked in control conditions a synaptic response that reversed at −42.4±1.7 mV (n=6) and was close to the reversal potential of spontaneous GABAA-PSCS (−46.1±0.7 mV; n=6, p=0.07). Examples of stimulus evoked postsynaptic currents at different holding potentials for individual pyramidal cell and corresponded current-voltage (I-V) relationship are shown in FIG. 1A. […] In presence of bumetanide, stimulus evoked GABAA-PSCs reversed at −46.1±1.9 mV (n=6, p=0.17). […] This in vitro system can be used to test any of the pharmaceutical compositions of the present invention for modulation of GABAA receptor activation. […]

For `CCCCNc1cc(C(=O)O)cc(S(N)(=O)=O)c1Oc1ccccc1` [bumetanide, 3-(aminosulfonyl)-5-(butylamino)-4-phenoxybenzoic acid], the “shift in reversal potential of GABAA-PSCs” value (bumetanide 10 μM application) was “negative shift” and the “reversal potential of stimulus evoked GABAA-PSCs” value (bumetanide 10 μM, P4-P6 CA3 pyramidal cells, n=6, p=0.17, control −42.4±1.7 mV) was −46.1±1.9 mV.
